# Patent US20230012368A1 (Hoffmann-La Roche Inc., priority 2018, published 2023)
# Structures can show the parent of a compound that is named as a salt.
# Test system: Acinetobacter baumannii ATCC 17978
# Assay: Antimicrobial susceptibility testing: 90% growth inhibitory concentration (IC90) determination
# Format: cell-based
# Conditions: 90% growth inhibitory concentration; Acinetobacter baumannii ATCC17978; Iso-Sensitest broth, OD 600 nm over 16h; read-out: ATCC17978 IC90
# How it was run: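 Growth of the Acinetobacter baumannii strain was followed by optical density at 600 nm every 20 minutes for 16h at 35±2° C. Inoculum was ~5×10^(5) CFU/ml in Iso-Sensitest medium, with twofold compound dilutions (e.g. 50 to 0.097 μM final). The 90% inhibitory concentration was derived in log-phase growth.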
row,SMILES,IC90
1,"CCc1cc(Nc2nccn3c(-c4ccc(OC)c(F)c4F)cnc23)ccc1C(=O)NCCCCCCCCN [Example 540, N-(8-aminooctyl)-4-((3-(2,3-difluoro-4-methoxyphenyl)imidazo[1,2-a]pyrazin-8-yl)amino)-2-ethylbenzamide hydrochloride]",100 nM

# Same assay, conditions: Acinetobacter baumannii, ATCC17978, 16 h, 90% growth inhibitory concentration; Acinetobacter baumannii ATCC17978; Iso-Sensitest broth, OD 600 nm over 16h; read-out: ATCC17978 IC90
row,SMILES,IC90
1,"COc1ccc(-c2cnc3c(Nc4ccc(C(=O)N(C)CC(=O)N5CCC(CN(C)C)C5)c(C)c4)nccn23)cc1F (centres unmarked) [Example 9, N-[2-[3-[(dimethylamino)methyl]pyrrolidin-1-yl]-2-oxo-ethyl]-4-[[3-(3-fluoro-4-methoxy-phenyl)imidazo[1,2-a]pyrazin-8-yl]amino]-N,2-dimethyl-benzamide]",840 nM
2,"COc1ccc(-c2cnc3c(Nc4ccc(C(=O)N(C)CCN(C)C)c(C)c4)nccn23)cc1 [Example 18, N-(2-(dimethylamino)ethyl)-4-((3-(4-methoxyphenyl)imidazo [1,2-a]pyrazin-8-yl)amino)-N,2-dimethylbenzamide]",2200 nM
3,"CCc1cc(Nc2nccn3c(-c4ccc(OC(F)F)c(F)c4F)cnc23)ccc1C(=O)NCCCCN [Example 94, N-(4-aminobutyl)-4-((3-(4-(difluoromethoxy)-2,3-difluorophenyl)imidazo [1,2-a]pyrazin-8-yl)amino)-2-ethylbenzamide hydrochloride]",280 nM
4,"COc1ccc(-c2cnc3c(Nc4ccc(C(=O)NCC5CCNC5)c(Cl)c4)nccn23)c(F)c1F (centres unmarked) [Example 60, 2-chloro-4-[[3-(2,3-difluoro-4-methoxy-phenyl)imidazo[1,2-a]pyrazin-8-yl]amino]-N-(pyrrolidin-3-ylmethyl)benzamide]",220 nM
5,"CCCc1cc(Nc2nccn3c(-c4ccc(OC(F)F)cc4)cnc23)ccc1C(=O)NC [Example 152, 4-((3-(4-(Difluoromethoxy)phenyl)imidazo[1,2-a]pyrazin-8-yl)amino)-N-methyl-2-propylbenzamide]",1100 nM
6,"N#CCOc1ccc(-c2cnc3c(Nc4ccc(C(=O)NCCCc5ccncc5)c(Cl)c4)nccn23)c(F)c1F [Example 76, 2-chloro-4-[[3-[4-(cyanomethoxy)-2,3-difluoro-phenyl]imidazo[l,2-a]pyrazin-8-yl]amino]-N-[3-(4-pyridyl)propyl] benzamide; 2,2,2-trifluoroacetic acid]",170 nM
7,"COc1ccc(-c2cnc3c(Nc4ccc(C(=O)NCC5CNCCO5)c(C)c4)nccn23)cc1F (centres unmarked) [Example 232, 4-[[3-(3-fluoro-4-methoxyphenyl)imidazo[1,2-a]pyrazin-8-yl]amino]-2-methyl-N-(morpholin-2-ylmethyl)benzamide; hydrochlo-ride]",1300 nM
8,"CCc1cc(Nc2nccn3c(-c4ccc(OCC#N)c(F)c4Cl)cnc23)ccc1C(=O)NCCNC(=O)[C@H](N)CCCNC(=N)N [Example 127, N-[2-[[(2R)-2-amino-5-guanidino-pentanoyl]amino]ethyl]-4-[[3-[2-chloro-4-(cyanomethoxy)-3-fluoro-phenyl]imidazo[1,2-a]pyrazin-8-yl]amino]-2-ethyl-benzamide formate]",90 nM
9,"CCN(CC)C(=O)c1ccc(Nc2nccn3c(-c4ccc(OC)c(Cl)c4)cnc23)cc1 [Example 215, 4-[[3-(3-chloro-4-methoxyphenyl)imidazo[1,2-a]pyrazin-8-yl]amino]-N,N-diethylbenzamide]",680 nM
10,COc1ccc(-c2cnc3c(Nc4ccc(C(=O)NC(CO)CO)c(C)c4)nccn23)cc1 [Example 154],820 nM
11,"COc1ccc(-c2cnc3c(Nc4ccc(C(=O)N(C)CCCC5OCC(N)CO5)c(C)c4)nccn23)cc1F (centres unmarked) [Example 192, N-[3-(5-amino-1,3-dioxan-2-yl)propyl]-4-[[3-(3-fluoro-4-methoxyphenyl)imidazo[1,2-a]pyrazin-8-yl]amino]-N,2-dimethylbenzamide]",340 nM
12,COc1ccc(-c2cnc3c(Nc4ccc(C(=O)NCCN5CCN(C)CC5)c(C)c4)nccn23)cc1 [Example 49],470 nM

# Other lines, results leading:
row,IC90,SMILES
1,41 nM,"CCc1cc(Nc2nccn3c(-c4ccc(OC)c(F)c4F)cnc23)ccc1C(=O)NCCCCCCN1CCCCC1 [Example 534, 4-((3-(2,3-difluoro-4-methoxyphenyl)imidazo[1,2-a]pyrazin-8-yl)amino)-2-ethyl-N-(6-(piperidin-1-yl)hexyl)benzamide]"
2,1400 nM,"Cc1cc(Nc2nccn3c(-c4ccc(OC(F)F)cc4)cnc23)ccc1C(=O)NCCN1C[C@@H](C)O[C@@H](C)C1 [Example 278, 4-[[3-[4-(difluoromethoxy)phenyl]im-idazo[1,2-a]pyrazin-8-yl]amino]-2-methyl-N-[2-[rac-(2R,6S)-2,6-dimethylmorpholin-4-yl]ethyl]benzamide]"
3,250 nM,"CCc1cc(Nc2nccn3c(-c4ccc(OC)c(F)c4F)cnc23)ccc1C(=O)NCC(=O)NCCN(C)C [Example 434, 4-[[3-(2,3-difluoro-4-methoxy-phenyl)imidazo[1,2-a]pyrazin-8-yl]amino]-N-[2-[2-(dimethylamino)ethylamino]-2-oxo-ethyl]-2-ethyl-benzamide; formic acid]"
4,2900 nM,"Cc1cc(Nc2nccn3c(-c4ccc(Cl)c(F)c4F)cnc23)ccc1C(=O)NCC1CCNCC1 [Example 253, 4-[[3-(4-chloro-2,3-difluorophenyl)imidazo[1,2-a]pyrazin-8-yl]amino]-2-methyl-N-(piperidin-4-ylmethyl)benzamide; hydrochlo-ride]"
5,300 nM,"COc1ccc(-c2cnc3c(Nc4ccc5c(c4)CCN(CCO)C5=O)nccn23)c(F)c1F [Example 302, 6-[[3-(2,3-difluoro-4-methoxyphenyl)imidazo[1,2-a]pyrazin-8-yl]amino]-2-(2-hydroxyethyl)-3,4-dihydroisoquinolin-1-one]"
6,590 nM,"CCc1cc(Nc2nccn3c(-c4ccc(OC)c(F)c4F)cnc23)ccc1C(=O)NCC[C@@H](C)NC(=O)[C@@H](N)CCCNC(=N)N [Example 340, N-[(3R)-3-[[(2S)-2-amino-5-carbamimidamidopentanoyl]amino]butyl]-4-[[3-(2,3-difluoro-4-methoxyphenyl)imidazo[1,2-a]pyrazin-8-yl]amino]-2-ethylbenzamide; hydrochloride]"
7,250 nM,"CCc1cc(Nc2nccn3c(-c4ccc(OC)c(F)c4F)cnc23)ccc1C(=O)NCC1(O)CCNC1 (centres unmarked) [Example 528, 4-((3-(2,3-difluoro-4-methoxyphenyl)imidazo[1,2-a]pyrazin-8-yl)amino)-2-ethyl-N-((3-hydroxypyrrolidin-3-yl)methyl)benzamide hydrochloride]"
8,1100 nM,"Cc1cc(Nc2nccn3c(-c4ccc(Cl)c(F)c4F)cnc23)ccc1C(=O)NCC1CCN(C)CC1 [Example 240, 4-[[3-(4-chloro-2,3-difluorophenyl)imidazo[1,2-a]pyrazin-8-yl]amino]-2-methyl-N-[(1-methylpiperidin-4-yl)methyl]benzamide]"
9,460 nM,"CCc1cc(Nc2nccn3c(-c4ccc(Oc5ccncn5)c(F)c4F)cnc23)ccc1C(=O)NCCNC(=O)[C@H](N)CCCNC(=N)N [Example 433, N-[2-[[(2R)-2-amino-5-guanidino-pentanoyl]amino]ethyl]-4-[[3-(2,3-difluoro-4-pyrimidin-4-yloxy-phenyl)imidazo[1,2-a]pyrazin-8-yl]amino]-2-ethyl-benzamide; formic acid]"
10,480 nM,"CCc1cc(Nc2nccn3c(-c4ccc(OC)c(F)c4F)cnc23)ccc1C(=O)NCCNC(=O)C(CNC(=N)N)NC(=O)[C@@H](N)CCC(=O)O (mixture of isomers) [Example 461, (4S)-4-amino-5-((1-((2-(4-((3-(2,3-difluoro-4-methoxyphenyl)imidazo[1,2-a]pyrazin-8-yl)amino)-2-ethylbenzamido)ethyl)amino)-3-guanidino-1-oxopropan-2-yl)amino)-5-oxopentanoic acid trihydrochloride]"
11,4100 nM,"CN(C)C(=O)c1ccc(Nc2nccn3c(-c4ccc(OC(F)F)cc4)cnc23)cc1CO [Example 259, 4-[[3-[4-(difluoromethoxy)phenyl]im-idazo[1,2-a]pyrazin-8-yl]amino]-2-(hydroxymethyl)-N,N-dimethylbenzamide]"
12,1000 nM,"COc1ccc(-c2cnc3c(Nc4ccc(C(=O)N(C)CCO)cc4)nccn23)cc1 [Example 235, N-(2-hydroxyethyl)-4-[[3-(4-methoxyphenyl)imidazo[1,2-a]pyrazin-8-yl]amino]-N-methylbenzamide]"
13,820 nM,"COc1ccc(-c2cnc3c(Nc4ccc(C(=O)N[C@H](CO)Cc5cnc[nH]5)c(C)c4)nccn23)cc1F [Example 383, 4-[[3-(3-fluoro-4-methoxyphenyl)imidazo[1,2-a]pyrazin-8-yl]amino]-N-[(2S)-1-hydroxy-3-(1H-imidazol-5-yl)propan-2-yl]-2-methylbenzamide]"
14,410 nM,"CCc1cc(Nc2nccn3c(-c4ccc(OC)c(F)c4F)cnc23)ccc1C(=O)NCCNC(=O)[C@@H](N)CCCCN [Example 398, N-[2-[[(2S)-2,6-diaminohexanoyl]amino]eth-yl]-4-[[3-(2,3-difluoro-4-methoxy-phenyl)imidazo[1,2-a]pyrazin-8-yl]amino]-2-ethyl-benzamide; formic acid]"
15,320 nM,"CCc1cc(Nc2nccn3c(-c4ccc(OC)c(F)c4F)cnc23)ccc1C(=O)NCC1CCN(C(C)(C)C(=O)O)CC1 [Example 562, 2-(4-((4-((3-(2,3-difluoro-4-methoxyphenyl)imidazo[1,2-a]pyrazin-8-yl)amino)-2-ethylbenzamido)methyl)piper-idin-1-yl)-2-methylpropanoic acid compound with formic acid]"
16,900 nM,"Cc1cc(Nc2nccn3c(-c4ccc(OC(F)F)cc4)cnc23)ccc1C(=O)NCCNC(=O)N1CCNCC1 [Example 345, N-[2-[[4-[[3-[4-(difluoromethoxy)phenyl]im-idazo[1,2-a]pyrazin-8-yl]amino]-2-methylbenzoyl]amino]ethyl] piperazine-1-carboxamide]"
